Assay results from US8859574B2 (IRM LLC, priority 2008, dated 2014).

The molecules below were run against T1, IGF-1R Ba/F3 (Homo sapiens, UniProt P08069) (assay: Ba/F3 Cell Viability Inhibition Assay (IGF-1R Ba/F3)). Conditions: Tel-TK transformed Ba/F3 cells, 48 hours, Britelite luminescence.
T1 construct: fused on or other part: TEL- (or BCR-) IGF-1R in Ba/F3: the kinase part holds the site
T1 sequence (P08069 999-1274 limits assumed): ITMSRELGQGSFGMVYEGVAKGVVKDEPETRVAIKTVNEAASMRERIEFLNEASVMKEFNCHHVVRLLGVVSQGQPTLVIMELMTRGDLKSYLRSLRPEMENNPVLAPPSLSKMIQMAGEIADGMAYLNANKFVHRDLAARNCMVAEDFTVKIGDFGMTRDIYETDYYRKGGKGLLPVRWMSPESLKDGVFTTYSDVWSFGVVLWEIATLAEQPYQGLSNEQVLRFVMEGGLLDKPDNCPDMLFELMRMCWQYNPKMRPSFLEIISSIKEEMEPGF
Type: cell-based, murine
Outline: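 A 48 h compound treatment at 37 °C (3750 cells/well) was followed by Britelite luminescence to measure viability. Cells were Ba/F3 pro-B cells, IL-3-independent via TEL-fused IGF-1R kinase transduction. A logistic fit gave IC50 as 50% viability relative to DMSO control.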
`Cc1cc(Nc2nc(Nc3cc(C)c(C4CCN(CCCS(=O)(=O)N5CCC5)CC4)cc3C)ncc2Cl)n[nH]1` [Compound 214, N^2-(4-(1-(3-(azetidin-1-ylsulfonyl)propyl)piperidin-4-yl)-2,5-dimethylphenyl)-5-chloro-N^4-(5-methyl-1H-pyrazol-3-yl)pyrimidine-2,4-diamine] showed an IC50 of 40 nM. With `Cc1cc(C2CCNCC2)c(C)cc1Nc1ncc(Cl)c(Nc2cc(C(F)(F)F)[nH]n2)n1` [Compound 215, 5-chloro-N2-(2,5-dimethyl-4-(piperidin-4-yl)phenyl)-N4-(5-(trifluoromethyl)-1H-pyrazol-3-yl)pyrimidine-2,4-diamine] the IC50 was 47 nM. `Cc1cc(Nc2nc(Nc3cc(C(F)(F)F)c(C4CCN(C)CC4)cc3F)ncc2Cl)n[nH]1` [Compound 216, 5-chloro-N2-(2-fluoro-4-(1-methylpiperidin-4-yl)-5-(trifluoromethyl)phenyl)-N4-(5-methyl-1H-pyrazol-3-yl)pyrimidine-2,4-diamine] gave an IC50 of 47 nM. For `Cc1cc(C2CCN(CC(N)=O)CC2)c(C)cc1Nc1ncc(Cl)c(Nc2cc(C(F)(F)F)[nH]n2)n1` [Compound 217, 2-(4-(4-(5-chloro-4-(5-(trifluoromethyl)-1H-pyrazol-3-ylamino)pyrimidin-2-ylamino)-2,5-dimethylphenyl)piperidin-1-yl)acetamide], the IC50 was 34 nM. With `Cc1cc(Nc2nc(Nc3cc(C(F)(F)F)c(C4CCN(C)CC4)cc3C)ncc2Cl)n[nH]1` [Compound 218, 5-chloro-N4-(5-methyl-1H-pyrazol-3-yl)-N2-(2-methyl-4-(1-methylpiperidin-4-yl)-5-(trifluoromethyl)phenyl)pyrimidine-2,4-diamine] the IC50 was 26 nM. `COc1cc(Nc2ncc(Cl)c(Nc3cc(C)[nH]n3)n2)c(C)cc1C1CCN(C)CC1` [Compound 219, 5-chloro-N2-(5-methoxy-2-methyl-4-(1-methylpiperidin-4-yl)phenyl)-N4-(5-methyl-1H-pyrazol-3-yl)pyrimidine-2,4-diamine] was tested, and the IC50 was 9 nM. In the case of `CNC(=O)CN1CCC(c2cc(C)c(Nc3ncc(Cl)c(Nc4cc(C(F)(F)F)[nH]n4)n3)cc2C)CC1` [Compound 220, 2-(4-(4-(5-chloro-4-(5-(trifluoromethyl)-1H-pyrazol-3-ylamino)pyrimidin-2-ylamino)-2,5-dimethylphenyl)piperidin-1-yl)-N-methylacetamide], the IC50 is reported as 37 nM. `CCN1CCC(c2cc(C)c(Nc3ncc(C(F)(F)F)c(Nc4cc(C)[nH]n4)n3)cc2C)CC1` [Compound 221, N2-(4-(1-ethylpiperidin-4-yl)-2,5-dimethylphenyl)-N4-(5-methyl-1H-pyrazol-3-yl)-5-(trifluoromethyl)pyrimidine-2,4-diamine] was tested, and the IC50 was 34 nM. With `Cc1cc(Nc2nc(Nc3cc(C)c(C4CCN(CCO)CC4)cc3C)ncc2C(F)(F)F)n[nH]1` [Compound 222, 2-(4-(2,5-dimethyl-4-(4-(5-methyl-1H-pyrazol-3-ylamino)-5-(trifluoromethyl)pyrimidin-2-ylamino)phenyl)piperidin-1-yl)ethanol] the IC50 was 38 nM. For `Cc1cc(C2CCN(C(=O)CN(C)C)CC2)c(C)cc1Nc1ncc(Cl)c(Nc2cc(C(F)(F)F)[nH]n2)n1` [Compound 223, 1-(4-(4-(5-chloro-4-(5-(trifluoromethyl)-1H-pyrazol-3-ylamino)pyrimidin-2-ylamino)-2,5-dimethylphenyl)piperidin-1-yl)-2-(dimethylamino)ethanone], the IC50 was 36 nM. Work on `Cc1cc(Nc2nc(Nc3cc(C)c(C4CCN(C(=O)CCCN5CCOCC5)CC4)cc3C)ncc2Cl)n[nH]1` [Compound 224, 1-(4-(4-(5-Chloro-4-(5-methyl-1H-pyrazol-3-ylamino)pyrimidin-2-ylamino)-2,5-dimethylphenyl)piperidin-1-yl)-4-morpholinobutan-1-one] yielded an IC50 of 20 nM. `Cc1cc(Nc2nc(Nc3cc(C)c(C4CCN(C(=O)CCN5CCOCC5)CC4)cc3C)ncc2Cl)n[nH]1` [Compound 225, 1-(4-(4-(5-Chloro-4-(5-methyl-1H-pyrazol-3-ylamino)pyrimidin-2-ylamino)-2,5-dimethylphenyl)piperidin-1-yl)-3-morpholinopropan-1-one] gave an IC50 of 17 nM. `Cc1cc(Nc2nc(Nc3cc(C)c(C4CCN(C(=O)CCN5CCCC5)CC4)cc3C)ncc2Cl)n[nH]1` [Compound 226, 1-(4-(4-(5-chloro-4-(5-methyl-1H-pyrazol-3-ylamino)pyrimidin-2-ylamino)-2,5-dimethylphenyl)piperidin-1-yl)-3-(pyrrolidin-1-yl)propan-1-one] gave an IC50 of 61 nM. `Cc1cc(Nc2nc(Nc3cc(C)c(C4CCN(C(=O)CCCN5CCCC5)CC4)cc3C)ncc2Cl)n[nH]1` [Compound 227, 1-(4-(4-(5-chloro-4-(5-methyl-1H-pyrazol-3-ylamino)pyrimidin-2-ylamino)-2,5-dimethylphenyl)piperidin-1-yl)-4-(pyrrolidin-1-yl)butan-1-one] was tested, and the IC50 was 123 nM. `COc1cc(Nc2ncc(Cl)c(Nc3cc(C)[nH]n3)n2)c(C)cc1C1CCN(C[C@@H](O)C(F)(F)F)CC1` [Compound 228, (R)-3-(4-(4-(5-chloro-4-(5-methyl-1H-pyrazol-3-ylamino)pyrimidin-2-ylamino)-2-methoxy-5-methylphenyl)piperidin-1-yl)-1,1,1-trifluoropropan-2-ol] gave an IC50 of 23 nM. `Cc1cc(Nc2nc(Nc3cc(C)c(C4CCCCN4C[C@@H](O)C(F)(F)F)cc3C)ncc2Cl)n[nH]1` (stereo partly drawn) [Compound 229, (2R)-3-(2-(4-(5-chloro-4-(5-methyl-1H-pyrazol-3-ylamino)pyrimidin-2-ylamino)-2,5-dimethylphenyl)piperidin-1-yl)-1,1,1-trifluoropropan-2-ol] showed an IC50 of 211 nM. With `Cc1cc(Nc2nc(Nc3cc(C)c([C@H]4COC(=O)N4)cc3C)ncc2Cl)n[nH]1` [Compound 230, (S)-4-(4-(5-chloro-4-(5-methyl-1H-pyrazol-3-ylamino)pyrimidin-2-ylamino)-2,5-dimethylphenyl)oxazolidin-2-one] the IC50 was 40 nM. `Cc1cc(Nc2nc(Nc3cc(C)c([C@@H]4COC(=O)N4)cc3C)ncc2Cl)n[nH]1` [Compound 231, (R)-4-(4-(5-chloro-4-(5-methyl-1H-pyrazol-3-ylamino)pyrimidin-2-ylamino)-2,5-dimethylphenyl)oxazolidin-2-one] showed an IC50 of 50 nM. For `CCN1CCC(c2cc(F)c(Nc3ncc(Cl)c(Nc4cc(C)[nH]n4)n3)cc2C)CC1` [Compound 232, 5-chloro-N^2-(4-(1-ethylpiperidin-4-yl)-2-fluoro-5-methylphenyl)-N^4-(5-methyl-1H-pyrazol-3-yl)pyrimidine-2,4-diamine], the IC50 was 20 nM. For `Cc1cc(Nc2nc(Nc3cc(C)c(C4CCN(S(=O)(=O)CCCN5CCCC5)CC4)cc3C)ncc2Cl)n[nH]1` [Compound 233, 5-chloro-N2-(2,5-dimethyl-4-(1-(3-(pyrrolidin-l-yl)propylsulfonyl)piperidin-4-yl)phenyl)-N4-(5-methyl-1H-pyrazol-3-yl)pyrimidine-2,4-diamine], the IC50 was 54 nM. `Cc1cc(Nc2nc(Nc3cc(C)c(C4CCN(S(=O)(=O)CCCN5CC[C@@H](O)C5)CC4)cc3C)ncc2Cl)n[nH]1` [Compound 234, (R)-1-(3-(4-(4-(5-chloro-4-(5-methyl-1H-pyrazol-3-ylamino)pyrimidin-2-ylamino)-2,5-dimethylphenyl)piperidin-1-ylsulfonyl)propyl)pyrrolidin-3-ol] was tested, and the IC50 was 73 nM. For `Cc1cc(Nc2nc(Nc3cc(C)c(C4CCN(CC5CC5(F)F)CC4)cc3F)ncc2Cl)n[nH]1` (centres unmarked) [Compound 235, 5-chloro-N-(4-(1-((2,2-difluorocyclopropyl)methyl)piperidin-4-yl)-2-fluoro-5-methylphenyl)-N^4-(5-methyl-1H-pyrazol-3-yl)pyrimidine-2,4-diamine], the IC50 was 63 nM. `Cc1cc(Nc2nc(Nc3cc(C)c(C4CCN(CCC(N)=O)CC4)cc3C)ncc2Cl)n[nH]1` [Compound 236, 3-(4-(4-(5-Chloro-4-(5-methyl-1H-pyrazol-3-ylamino)pyrimidin-2-ylamino)-2,5-dimethylphenyl)piperidin-1-yl)propanamide] was tested, and the IC50 was 59 nM. With `Cc1cc(Nc2nc(Nc3cc(C)c(C4CNC4)cc3C)ncc2Cl)n[nH]1` [Compound 237, N2-(4-(azetidin-3-yl)-2,5-dimethylphenyl)-5-chloro-N4-(5-methyl-1H-pyrazol-3-yl)pyrimidine-2,4-diamine] the IC50 was 410 nM. `Cc1cc(Nc2nc(Nc3cc(C)c(C4CCN(CCC(=O)N5CCCC5)CC4)cc3C)ncc2Cl)n[nH]1` [Compound 238, 3-(4-(4-(5-chloro-4-(5-methyl-1H-pyrazol-3-ylamino)pyrimidin-2-ylamino)-2,5-dimethylphenyl)piperidin-1-yl)-1-(pyrrolidin-1-yl)propan-1-one] gave an IC50 of 39 nM. Work on `Cc1cc(Nc2nc(Nc3cc(C)c(C4CCN(C(=O)CCN(C)C)CC4)cc3C)ncc2Cl)n[nH]1` [Compound 239, 1-(4-(4-(5-chloro-4-(5-methyl-1H-pyrazol-3-ylamino)pyrimidin-2-ylamino)-2,5-dimethylphenyl)piperidin-1-yl)-3-(dimethylamino)propan-1-one] yielded an IC50 of 73 nM. `CCN1CCC(c2cc(F)c(Nc3ncc(Cl)c(Nc4cc(C)[nH]n4)n3)cc2C(F)(F)F)CC1` [Compound 240, 5-chloro-N2-(4-(1-ethylpiperidin-4-yl)-2-fluoro-5-(trifluoromethyl)phenyl)-N4-(5-methyl-1H-pyrazol-3-yl)pyrimidine-2,4-diamine] showed an IC50 of 102 nM. With `CCN1CCC(c2cc(C)c(Nc3ncc(Cl)c(Nc4cc(C)[nH]n4)n3)cc2C(F)(F)F)CC1` [Compound 241, 5-chloro-N2-(4-(1-ethylpiperidin-4-yl)-2-methyl-5-(trifluoromethyl)phenyl)-N4-(5-methyl-1H-pyrazol-3-yl)pyrimidine-2,4-diamine] the IC50 was 68 nM. With `Cc1cc(Nc2nc(Nc3cc(C)c(C4CCN(CCC(=O)N5CCCC5)CC4)cc3F)ncc2Cl)n[nH]1` [Compound 242, 3-(4-(4-(5-chloro-4-(5-methyl-1H-pyrazol-3-ylamino)pyrimidin-2-ylamino)-5-fluoro-2-methylphenyl)piperidin-1-yl)-1-(pyrrolidin-1-yl)propan-1-one] the IC50 was 60 nM.
